Reference: US20230085307A1, “PYRIDAZINONE COMPOUND AND HERBICIDE” (NISSAN CHEMICAL CORPORATION, priority 2019, published 2023)

Assays:
[1] = tested on: chickweed; experiment: Test Example 5: herbicidal effect by foliage application, plastic box (Table 20, symbol P); format: in vivo, common chickweed (Stellaria media); details: foliage application, 320 g/ha, evaluated three weeks after application
Outline: (§1)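 Plants sown in sterilized diluvial soil and grown 14 days in a greenhouse at 25° C to 30° C, then sprayed on the foliage with the compound's emulsion diluted in water to a predetermined herbicide amount. Injury to weeds and crops scored three weeks after application on a visual rating scale.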

[2] = tested on: blackgrass; experiment: Test Example 5: herbicidal effect by foliage application, plastic box (Table 20, symbol J); format: in vivo, blackgrass (Alopecurus myosuroides); details: foliage application, 320 g/ha, evaluated three weeks after application
Outline: as §1

[3] = tested on: redroot pigweed; experiment: Test Example 4: herbicidal effect by soil treatment (Table 19, symbol N); format: in vivo, redroot pigweed (Amaranthus retroflexus); details: amount of applied herbicide 320 g/ha
Outline: (§2)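 Seeds were sown in sterilized diluvial soil and covered with about 1.5 cm of soil. An emulsion formulation diluted with water to a predetermined herbicide amount was sprayed evenly onto the soil surface. Plants grew in a greenhouse at 25° C. to 30° C., and the effect was scored three weeks after application using criteria from an earlier test.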

[4] = tested on: green foxtail; experiment: Test Example 5: herbicidal effect by foliage application, plastic box (Table 20, symbol G); format: in vivo, green foxtail (Setaria viridis); details: foliage application, 320 g/ha, evaluated three weeks after application
Outline: as §1

[5] = tested on: chickweed; experiment: Test Example 4: herbicidal effect by soil treatment (Table 19, symbol P); format: in vivo, common chickweed (Stellaria media); details: amount of applied herbicide 320 g/ha
Outline: as §2

[6] = tested on: Chinese sprangletop; experiment: Test Example 3: herbicidal effect by foliage application, Wagner pot (Table 18, symbol D); format: in vivo, chinese sprangletop (Leptochloa chinensis); details: 320 g/ha
Outline: (§3)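 Plants were sown in alluvial soil held under 0.1–0.5 cm standing water and grown 14 days in a greenhouse at 25–30 °C. An emulsifiable formulation, water-diluted to the set dose, was then sprayed onto the foliage, and effects were scored three weeks later using previously defined criteria.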

[7] = tested on: oval-leafed pondweed; experiment: Test Example 2: herbicidal activity, application during weed generation under submerged conditions (Table 17, symbol C); format: in vivo, oval-leafed pondweed (Monochoria vaginalis); details: AAH 320 g/ha; application during weed generation, submerged conditions
Outline: (§4)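 Alluvial soil in Wagner pots was flooded to 4 cm depth and sown with the three weeds together; pots were kept in a greenhouse at 25° C. to 30° C. At the one to two leaf stage, an emulsion formulation diluted in water to a set rate went onto the water surface; scored three weeks later.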

[8] = tested on: false cleavers; experiment: Test Example 5: herbicidal effect by foliage application, plastic box (Table 20, symbol Q); format: in vivo, false cleavers (Galium spurium); details: foliage application, 320 g/ha, evaluated three weeks after application
Outline: as §1

[9] = tested on: windgrass; experiment: Test Example 5: herbicidal effect by foliage application, plastic box (Table 20, symbol L); format: in vivo, windgrass (Apera spica-venti); details: foliage application, 320 g/ha, evaluated three weeks after application
Outline: as §1

[10] = tested on: southern crabgrass; experiment: Test Example 5: herbicidal effect by foliage application, plastic box (Table 20, symbol F); format: in vivo, southern crabgrass (Digitaria ciliaris); details: foliage application, 320 g/ha, evaluated three weeks after application
Outline: as §1

[11] = tested on: green foxtail; experiment: Test Example 4: herbicidal effect by soil treatment (Table 19, symbol G); format: in vivo, green foxtail (Setaria viridis); details: amount of applied herbicide 320 g/ha
Outline: as §2

[12] = tested on: wild oat; experiment: Test Example 4: herbicidal effect by soil treatment (Table 19, symbol I); format: in vivo, wild oat (Avena fatua); details: amount of applied herbicide 320 g/ha
Outline: as §2

[13] = tested on: Italian ryegrass; experiment: Test Example 5: herbicidal effect by foliage application, plastic box (Table 20, symbol K); format: in vivo, Italian ryegrass (Lolium multiflorum); details: foliage application, 320 g/ha, evaluated three weeks after application
Outline: as §1

[14] = tested on: windgrass; experiment: Test Example 4: herbicidal effect by soil treatment (Table 19, symbol L); format: in vivo, windgrass (Apera spica-venti); details: amount of applied herbicide 320 g/ha
Outline: as §2

[15] = tested on: barnyard grass; experiment: Test Example 5: herbicidal effect by foliage application, plastic box (Table 20, symbol H); format: in vivo, barnyard grass (Echinochloa crus-galli); details: foliage application, 320 g/ha, evaluated three weeks after application
Outline: as §1

[16] = tested on: rice flat sedge; experiment: Test Example 3: herbicidal effect by foliage application, Wagner pot (Table 18, symbol E); format: in vivo, rice flat sedge (Cyperus iria); details: 320 g/ha
Outline: as §3

[17] = tested on: redroot pigweed; experiment: Test Example 5: herbicidal effect by foliage application, plastic box (Table 20, symbol N); format: in vivo, redroot pigweed (Amaranthus retroflexus); details: foliage application, 320 g/ha, evaluated three weeks after application
Outline: as §1

[18] = tested on: false cleavers; experiment: Test Example 4: herbicidal effect by soil treatment (Table 19, symbol Q); format: in vivo, false cleavers (Galium spurium); details: amount of applied herbicide 320 g/ha
Outline: as §2

[19] = tested on: Japanese bulrush; experiment: Test Example 2: herbicidal activity, application during weed generation under submerged conditions (Table 17, symbol B); format: in vivo, Japanese bulrush (Schoenoplectus juncoides); details: AAH 320 g/ha; application during weed generation, submerged conditions
Outline: as §4

[20] = tested on: velvetleaf; experiment: Test Example 5: herbicidal effect by foliage application, plastic box (Table 20, symbol M); format: in vivo, velvetleaf (Abutilon theophrasti); details: foliage application, 320 g/ha, evaluated three weeks after application
Outline: as §1

[21] = tested on: lambsquarters; experiment: Test Example 4: herbicidal effect by soil treatment (Table 19, symbol O); format: in vivo, lambsquarters (Chenopodium album); details: amount of applied herbicide 320 g/ha
Outline: as §2

[22] = tested on: barnyard grass; experiment: Test Example 4: herbicidal effect by soil treatment (Table 19, symbol H); format: in vivo, barnyard grass (Echinochloa crus-galli); details: amount of applied herbicide 320 g/ha
Outline: as §2

[23] = tested on: wild oat; experiment: Test Example 5: herbicidal effect by foliage application, plastic box (Table 20, symbol I); format: in vivo, wild oat (Avena fatua); details: foliage application, 320 g/ha, evaluated three weeks after application
Outline: as §1

[24] = tested on: blackgrass; experiment: Test Example 4: herbicidal effect by soil treatment (Table 19, symbol J); format: in vivo, blackgrass (Alopecurus myosuroides); details: amount of applied herbicide 320 g/ha
Outline: as §2

[25] = tested on: Italian ryegrass; experiment: Test Example 4: herbicidal effect by soil treatment (Table 19, symbol K); format: in vivo, Italian ryegrass (Lolium multiflorum); details: amount of applied herbicide 320 g/ha
Outline: as §2

[26] = tested on: southern crabgrass; experiment: Test Example 4: herbicidal effect by soil treatment (Table 19, symbol F); format: in vivo, southern crabgrass (Digitaria ciliaris); details: amount of applied herbicide 320 g/ha
Outline: as §2

[27] = tested on: velvetleaf; experiment: Test Example 4: herbicidal effect by soil treatment (Table 19, symbol M); format: in vivo, velvetleaf (Abutilon theophrasti); details: amount of applied herbicide 320 g/ha
Outline: as §2

[28] = tested on: lambsquarters; experiment: Test Example 5: herbicidal effect by foliage application, plastic box (Table 20, symbol O); format: in vivo, lambsquarters (Chenopodium album); details: foliage application, 320 g/ha, evaluated three weeks after application
Outline: as §1

[29] = tested on: persian speedwell; experiment: Test Example 4: herbicidal effect by soil treatment (Table 19, symbol R); format: in vivo, Persian speedwell (Veronica persica); details: amount of applied herbicide 320 g/ha
Outline: as §2

[30] = tested on: late watergrass; experiment: Test Example 2: herbicidal activity, application during weed generation under submerged conditions (Table 17, symbol A); format: in vivo, late watergrass (Echinochloa oryzicola); details: AAH 320 g/ha; application during weed generation, submerged conditions
Outline: as §4

[31] = tested on: barnyard grass; experiment: Test Example 3: herbicidal effect by foliage application, Wagner pot (Table 18, symbol H); format: in vivo, barnyard grass (Echinochloa crus-galli); details: 320 g/ha
Outline: as §3

[32] = tested on: persian speedwell; experiment: Test Example 5: herbicidal effect by foliage application, plastic box (Table 20, symbol R); format: in vivo, Persian speedwell (Veronica persica); details: foliage application, 320 g/ha, evaluated three weeks after application
Outline: as §1

## CCCC(=O)Oc1c(C)nn(C)c(=O)c1-c1c(-c2ccc(OC(C)C)cc2)sc2ccc(Cl)cc12 [2-108]
[1]
  herbicidal effect on P: chickweed: 4 (Herbicidal rate of 70% or more and less than 90%)
[2]
  herbicidal effect on J: blackgrass: 0 (Herbicidal rate of 5% or less (almost no effect))
[3]
  N: redroot pigweed, herbicidal effect rating: 0 (Herbicidal rate of 5% or less (almost no effect))
[4]
  herbicidal effect on G: green foxtail: 0 (Herbicidal rate of 5% or less (almost no effect))
[5]
  P: chickweed, herbicidal effect rating: 0 (Herbicidal rate of 5% or less (almost no effect))
[6]
  herbicidal effect on D (Chinese sprangletop), rating 0-5: 0 (Herbicidal rate of 5% or less (almost no effect))
[7]
  herbicidal effect rating, C: oval-leafed pondweed: 0 (Herbicidal rate of 5% or less (almost no effect))
[8]
  herbicidal effect on Q: false cleavers: 0 (Herbicidal rate of 5% or less (almost no effect))
[9]
  herbicidal effect on L: windgrass: 0 (Herbicidal rate of 5% or less (almost no effect))
[10]
  herbicidal effect on F: southern crabgrass: 0 (Herbicidal rate of 5% or less (almost no effect))
[11]
  G: green foxtail, herbicidal effect rating: 0 (Herbicidal rate of 5% or less (almost no effect))
[12]
  I: wild oat, herbicidal effect rating: 0 (Herbicidal rate of 5% or less (almost no effect))
[13]
  herbicidal effect on K: Italian ryegrass: 0 (Herbicidal rate of 5% or less (almost no effect))
[14]
  L: windgrass, herbicidal effect rating: 0 (Herbicidal rate of 5% or less (almost no effect))
[15]
  herbicidal effect on H: barnyard grass: 0 (Herbicidal rate of 5% or less (almost no effect))
[16]
  herbicidal effect on E (rice flat sedge), rating 0-5: 2 (Herbicidal rate of 20% or more and less than 40%)
[17]
  herbicidal effect on N: redroot pigweed: 3 (Herbicidal rate of 40% or more and less than 70%)
[18]
  Q: false cleavers, herbicidal effect rating: 0 (Herbicidal rate of 5% or less (almost no effect))
[19]
  herbicidal effect rating, B: Japanese bulrush: 0 (Herbicidal rate of 5% or less (almost no effect))
[20]
  herbicidal effect on M: velvetleaf: 2 (Herbicidal rate of 20% or more and less than 40%)
[21]
  O: lambsquarters, herbicidal effect rating: 0 (Herbicidal rate of 5% or less (almost no effect))
[22]
  H: barnyard grass, herbicidal effect rating: 0 (Herbicidal rate of 5% or less (almost no effect))
[23]
  herbicidal effect on I: wild oat: 0 (Herbicidal rate of 5% or less (almost no effect))
[24]
  J: blackgrass, herbicidal effect rating: 0 (Herbicidal rate of 5% or less (almost no effect))
[25]
  K: Italian ryegrass, herbicidal effect rating: 0 (Herbicidal rate of 5% or less (almost no effect))
[26]
  F: southern crabgrass, herbicidal effect rating: 0 (Herbicidal rate of 5% or less (almost no effect))
[27]
  M: velvetleaf, herbicidal effect rating: 0 (Herbicidal rate of 5% or less (almost no effect))
[28]
  herbicidal effect on O: lambsquarters: 1 (Herbicidal rate of 5% or more and less than 20%)
[29]
  R: persian speedwell, herbicidal effect rating: 4 (Herbicidal rate of 70% or more and less than 90%)
[30]
  herbicidal effect rating, A: late watergrass: 3 (Herbicidal rate of 40% or more and less than 70%)
[31]
  herbicidal effect on H (barnyard grass), rating 0-5: 4 (Herbicidal rate of 70% or more and less than 90%)
[32]
  herbicidal effect on R: persian speedwell: 5 (Herbicidal rate of 90% or more (almost completely withered))
